Laboratory results from EP0551434B1 (BOARD OF REGENTS THE UNIVERSITY OF TEXAS SYSTEM, priority 1990, dated 1992).
Where two headings read alike, the source gives them in different places.

Key:
MCF7 = experiment: Inhibition of MCF7 breast tumor cell growth in vitro (72 hour exposure, MTT tetrazolium dye assay); assay type: cell-based, human
Experimental: The MCF7 cell line is a human tumor cell line. This cell line was cultured in MEM( (Eagles) media in a 5% C0^2 atmosphere with 10% fetal calf serum that had been washed twice with dextran coated charcoal to reduce endogenous estrogen levels. The media was supplemented with 1 mM sodium pyruvate and 100 µm non-essential amino acids. The cell line was screened routinely for myoplasma contamination using the GenProbe kit (Fisher). Cells were trypsinized and plated at a density of 5,000 cells/well in 96 well microtiter plates and allowed to attach and recover for 24 hours.
The media was removed by aspiration and replaced with filter sterilized drug (concentration from 10-^4 M to […]) in media. The cells were incubated for 72 hours and then stained using the MTT tetrazolium dye assay of Mosmann^36 except that after the media was removed, the blue formazan product was solubilized in 50 µl/well DMSO.

[1] = In vivo tissue uptake of ^131I-IMTX (trans) in rat
estrogen receptor [2] = molecular target: T1, estrogen receptor (Sus scrofa, UniProt Q29040); settings: for Ki: [^3H]estradiol 5 nM, 4°C
T1 sequence (Q29040 1-595): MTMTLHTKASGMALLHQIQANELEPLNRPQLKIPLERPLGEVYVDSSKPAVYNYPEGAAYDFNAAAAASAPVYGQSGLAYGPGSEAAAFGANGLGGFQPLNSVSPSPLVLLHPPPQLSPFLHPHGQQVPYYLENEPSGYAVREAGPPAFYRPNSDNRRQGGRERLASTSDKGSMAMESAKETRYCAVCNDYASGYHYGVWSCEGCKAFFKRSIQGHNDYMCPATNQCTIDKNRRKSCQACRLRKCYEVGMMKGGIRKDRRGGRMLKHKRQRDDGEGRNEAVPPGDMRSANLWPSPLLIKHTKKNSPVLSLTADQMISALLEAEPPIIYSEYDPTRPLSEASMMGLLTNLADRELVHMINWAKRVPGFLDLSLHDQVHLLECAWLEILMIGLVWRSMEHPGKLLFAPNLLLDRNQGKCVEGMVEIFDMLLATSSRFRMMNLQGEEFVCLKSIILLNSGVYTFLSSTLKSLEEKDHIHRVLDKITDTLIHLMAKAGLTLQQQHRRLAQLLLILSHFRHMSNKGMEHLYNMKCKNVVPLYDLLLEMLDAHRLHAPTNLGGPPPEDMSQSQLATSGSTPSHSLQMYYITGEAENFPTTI

estrogen receptor [3] = molecular target: T1, estrogen receptor; experiment: biochemical
[4] = Uterus to muscle ratio (tissue uptake, method not described); settings: in vivo
[5] = In vivo biodistribution of N,N-diethyl-[^18F]fluoromethyltamoxifen in rats; settings: rat, iv; for tissue uptake at 2 h / tissue uptake at 4 h: primed with 60 μg of estradiol for 3 days
Experimental: Four groups of rats (150-200 gm, N = 4/group) were anesthetized with ketamine (10-15 mg/rat). […]. Tissue uptake of ^18F-tracer was determined at 2 and 4 hours (h). To ascertain whether the ^18 F-tracer uptake was mediated by a receptor-process, one group of rats was given ^18F-tracer without priming with estradiol; and another group of rats was given unlabeled estradiol (30 µg/rat) together with ^18 F-tracer. […]

[6] = Homo sapiens, MCF7, 72 h, Table 6, 72 hour exposure, average of three experiments, read-out: IC50 Dose
[7] = Homo sapiens, MCF7, text values b172, read-out: IC50 MCF7 cell inhibition (converted)
[8] = Table 6, relative potency, IC50 ratio between tamoxifen and competitor, tamoxifen = 100
[9] = Homo sapiens, MCF7, 72 h, read-out: IC50 Dose (µM)
[10] = IC50 ratio between tamoxifen and competitor, tamoxifen printed as 1
[11] = IC50(uM), concentration required to decrease bound [^3H]estradiol by 50%, average of three experiments
[12] = IC-50 estrogen receptor binding, [^3H]estradiol (5 nM)
[13] = IC50(M), [^3H]estradiol 5 nM, 4°C
[14] = 2h(BLOCK): coinjected with estradiol (30μg)
[15] = 2h, without prime with estradiol (control)
[16] = comparative compounds IV and VII, average of three experiments, read-out: IC50 Dose
[17] = comparative compounds IV and VII, relative potency, tamoxifen = 100

## CCN(CC)CCOc1ccc(C(=C(CCF)c2ccccc2)c2ccccc2)cc1 (single isomer, unassigned) [Compound IV (Cis), N,N-diethyl-fluorotamoxifen]
MCF7
  RP: 268

## CCN(CC)CCOc1ccc(C(=C(CCF)c2ccccc2)c2ccccc2)cc1 (single isomer, unassigned) [Compound IV (Trans), N,N-diethyl-fluorotamoxifen]
MCF7
  RP: 82

## CCN(CC)CCOc1ccc(C(=C(CCC[131I])c2ccccc2)c2ccccc2)cc1 (single isomer, unassigned) [^131 I-IMTX (trans)]
[1]; 3h
  Uterus/blood ratio: 1.6
[1]; 6h
  Uterus/blood ratio: 1.5
[1]; 24h
  Uterus/blood ratio: 1.2
[1]; n=5, 3h
  tissue uptake liver: 5.3 ± 0.84 % injected dose per organ
  tissue uptake uterus: 0.5 ± 0.04 % injected dose per organ
[1]; n=5, 6h
  tissue uptake liver: 3.0 ± 0.02 % injected dose per organ
[1]; n=5, 24h
  tissue uptake liver: 1.7 ± 0.21 % injected dose per organ
  tissue uptake uterus: 0.01 ± 0.001 % injected dose per organ

## CCN(CC)CCOc1ccc(/C(=C(/CCCF)c2ccccc2)c2ccccc2)cc1 [Compound VI (trans)]
MCF7; [6]
  IC50: 11.8 µM
MCF7; [7]
  IC50: 11.8 µM
MCF7; [8]
  RP: 93

## CCN(CC)CCOc1ccc(/C(=C(\CCCBr)c2ccccc2)c2ccccc2)cc1 [Compound XI (Cis), 1-[4-(2-Diethylaminoethoxy)phenyl]-1,2-diphenyl-5-bromo-1-entene]
MCF7; [9]
  IC50: 0.62 µM
MCF7; [8]
  RP: 2355
Estrogen receptor [2]; [10]
  RBA: 37.5
Estrogen receptor [3]; [11]
  IC50: 0.8 µM
Estrogen receptor [3]; [12]
  IC50: 0.8 µM

## CCN(CC)CCOc1ccc(/C(=C(/CCCBr)c2ccccc2)c2ccccc2)cc1 [Compound XI (trans), 1-[4-(2-Diethylaminoethoxy)phenyl]-1,2-diphenyl-5-bromo-1-entene]
MCF7; [9]
  IC50: 4.9 µM
MCF7; [8]
  RP: 298
Estrogen receptor [2]; [10]
  RBA: 150
Estrogen receptor [3]; [11]
  IC50: 0.2 µM
Estrogen receptor [3]; [12]
  IC50: 0.2 µM

## CCN(CC)CCOc1ccc(C(=C(CCCBr)c2ccccc2)c2ccccc2)cc1 [Compound XI, 1-[4-(2-Diethylaminoethoxy)phenyl]-1,2-diphenyl-5-bromo-1-entene]
Estrogen receptor [3]; IC-50, text value, Example 5
  IC50: 0.2 µM
Estrogen receptor [3]; [12]
  IC50: 0.2 µM

## CCN(CC)CCOc1ccc(/C(=C(\CCCCl)c2ccccc2)c2ccccc2)cc1 [Compound XII (Cis), 1[4-(2-Diethylaminoethoxy)phenyl]-1,2-diphenyl-5-chloro-1-pentene]
MCF7; [8]
  RP: 335
Estrogen receptor [2]
  RBA: 7.5
Estrogen receptor [3]; [11]
  IC50: 4 µM
Estrogen receptor [3]; [12]
  IC50: 4 µM

## CCN(CC)CCOc1ccc(/C(=C(/CCCCl)c2ccccc2)c2ccccc2)cc1 [Compound XII (trans), 1[4-(2-Diethylaminoethoxy)phenyl]-1,2-diphenyl-5-chloro-1-pentene]
MCF7; Table 6, 72 hour exposure, average of three experiments, read-out: IC50 Dose
  IC50: 10 µM
MCF7; [8]
  RP: 146
Estrogen receptor [2]
  RBA: 75

## CCN(CC)CCOc1ccc(/C(=C(/CCCCl)c2ccccc2)c2ccccc2)cc1 [Compound XII, 1[4-(2-Diethylaminoethoxy)phenyl]-1,2-diphenyl-5-chloro-1-pentene]
Estrogen receptor [3]; [12]
  IC50: 0.4 µM

## CCN(CC)CCOc1ccc(/C(=C(/CCCI)c2ccccc2)c2ccccc2)cc1 [Compound X]
Estrogen receptor [2]
  fold higher affinity for the estrogen receptor than native tamoxifen: 10-15 fold
[4]
  uterus to muscle ratio: 3.6
Estrogen receptor [3]; [12]
  IC50: 2 µM

## CCN(CC)CCOc1ccc(/C(=C(\CCCO)c2ccccc2)c2ccccc2)cc1 [III (Cis), N,N-diethyl-hydroxymethyltamoxifen]
MCF7; [6]
  IC50: 16.7 µM
MCF7; [8]
  RP: 66
Estrogen receptor [2]
  RBA: 3
  RBA*: 300
Estrogen receptor [3]
  Ki: 5 µM
Estrogen receptor [3]; [13]
  IC50: 10 µM
Estrogen receptor [3]; [11]
  IC50: 10 µM
Estrogen receptor [3]; [12]
  IC50: 10 µM

## CCN(CC)CCOc1ccc(/C(=C(/CCCO)c2ccccc2)c2ccccc2)cc1 [III (trans), N,N-diethyl-hydroxymethyltamoxifen]
MCF7; [6]
  IC50: 22 µM
MCF7; [8]
  RP: 50
Estrogen receptor [2]
  RBA: 4
  RBA*: 400
Estrogen receptor [3]
  Ki: 3.5 µM
Estrogen receptor [3]; [13]
  IC50: 7 µM
Estrogen receptor [3]; [11]
  IC50: 7 µM
Estrogen receptor [3]; [12]
  IC50: 7 µM

## CCN(CC)CCOc1ccc(C(=C(CCC[18F])c2ccccc2)c2ccccc2)cc1 [N,N-DIETHYL-[^18F]FLUOROMETHYLTAMOXIFEN]
[5]; blood, 2h, read-out: BLOOD
  tissue uptake at 2 h: 0.033 ± 0.0059 %ID/g
[5]; blood, read-out: BLOOD
  tissue uptake at 4 h: 0.045 ± 0.0003 %ID/g
[5]; bone, 2h, read-out: BONE
  tissue uptake at 2 h: 0.653 ± 0.135 %ID/g
[5]; bone, read-out: BONE
  tissue uptake at 4 h: 0.802 ± 0.0556 %ID/g
[5]; intestine, 2h, read-out: INTESTINE
  tissue uptake at 2 h: 0.917 ± 0.306 %ID/g
[5]; intestine, read-out: INTESTINE
  tissue uptake at 4 h: 1.1 ± 0.599 %ID/g
[5]; kidney, 2h, read-out: KIDNEY
  tissue uptake at 2 h: 0.742 ± 0.0756 %ID/g
[5]; kidney, read-out: KIDNEY
  tissue uptake at 4 h: 0.796 ± 0.03 %ID/g
[5]; liver, 2h, read-out: LIVER
  tissue uptake at 2 h: 4.54 ± 0.505 %ID/g
[5]; liver, read-out: LIVER
  tissue uptake at 4 h: 4.21 ± 0.44 %ID/g
[5]; muscle, 2h, read-out: MUSCLE
  tissue uptake at 2 h: 0.151 ± 0.0203 %ID/g
[5]; muscle, read-out: MUSCLE
  tissue uptake at 4 h: 0.183 ± 0.0015 %ID/g
[5]; [14]
  BLOOD: 0.048±0.0066 % OF INJECTED DOSE/GRAM OF TISSUE WEIGHT
  BONE: 0.576±0.1268 % OF INJECTED DOSE/GRAM OF TISSUE WEIGHT
  INTESTINE: 0.742±0.458 % OF INJECTED DOSE/GRAM OF TISSUE WEIGHT
  KIDNEY: 0.742±0.1451 % OF INJECTED DOSE/GRAM OF TISSUE WEIGHT
  LIVER: 4.451±1.1559 % OF INJECTED DOSE/GRAM OF TISSUE WEIGHT
  MUSCLE: 0.145±0.0446 % OF INJECTED DOSE/GRAM OF TISSUE WEIGHT
  UTERUS: 0.297±0.0356 % OF INJECTED DOSE/GRAM OF TISSUE WEIGHT
[5]; [15]
  BLOOD: 0.033±0.0109 % OF INJECTED DOSE/GRAM OF TISSUE WEIGHT
  BONE: 0.644±0.0656 % OF INJECTED DOSE/GRAM OF TISSUE WEIGHT
  INTESTINE: 0.504±0.1784 % OF INJECTED DOSE/GRAM OF TISSUE WEIGHT
  KIDNEY: 0.530±0.0752 % OF INJECTED DOSE/GRAM OF TISSUE WEIGHT
  LIVER: 3.849±0.4069 % OF INJECTED DOSE/GRAM OF TISSUE WEIGHT
  MUSCLE: 0.109±0.0218 % OF INJECTED DOSE/GRAM OF TISSUE WEIGHT
  UTERUS: 0.248±0.0535 % OF INJECTED DOSE/GRAM OF TISSUE WEIGHT
[5]; uterus, 2h, read-out: UTERUS
  tissue uptake at 2 h: 0.426 ± 0.0177 %ID/g
[5]; uterus, read-out: UTERUS
  tissue uptake at 4 h: 0.4 ± 0.0312 %ID/g

## CCN(CC)CCOc1ccc(/C(=C(\CCCF)c2ccccc2)c2ccccc2)cc1 [VI (Cis), N,N-diethyl-fluoromethyltamoxifen]
MCF7; [6]
  IC50: 4.5 µM
MCF7; [7]
  IC50: 4.5 µM
MCF7; [8]
  RP: 244

## CCN(CC)CCOc1ccc(/C(=C(\CCCI)c2ccccc2)c2ccccc2)cc1 [X (cis), N,N-diethyl-iodomethyltamoxifen]
MCF7; [6]
  IC50: 2.36 µM
MCF7; [7]
  IC50: 2.4 µM
MCF7; [8]
  RP: 466
Estrogen receptor [2]
  RBA: 10
  RBA*: 1,000
  fold higher affinity for the estrogen receptor than native tamoxifen: 10 fold
  Ki: 1.5 µM
Estrogen receptor [3]
  Ki: 1.5 µM
Estrogen receptor [3]; [13]
  IC50: 3 µM
Estrogen receptor [3]; [11]
  IC50: 3 µM
Estrogen receptor [3]; [12]
  IC50: 3 µM

## CCN(CC)CCOc1ccc(/C(=C(/CCCI)c2ccccc2)c2ccccc2)cc1 [X (trans)]
MCF7; [6]
  IC50: 6.3 µM
MCF7; [7]
  IC50: 6.3 µM
MCF7; [8]
  RP: 175
Estrogen receptor [2]
  RBA: 15
  RBA*: 1,500
  fold higher affinity for the estrogen receptor than native tamoxifen: 15 fold
  Ki: 1 µM
Estrogen receptor [3]
  Ki: 1 µM
Estrogen receptor [3]; [13]
  IC50: 2 µM
Estrogen receptor [3]; [11]
  IC50: 2 µM
Estrogen receptor [3]; [12]
  IC50: 2 µM

## Fluorotamoxifen [Compound VII (Cis)]
MCF7; [16]
  IC50: 4.5 µM
MCF7; [17]
  RP: 224

## Fluorotamoxifen [Compound VII (Trans)]
MCF7; [16]
  IC50: 11.8 µM
MCF7; [17]
  RP: 93
